ChEMBL document CHEMBL1159221, “Crystal Structure of Sandaracopimaric Acid, a Lipoxygenase Inhibitor from Juniperus phoenicea” (J Nat Prod, 1995)
Active and inactive are the calls of the source. The calls are words filed in the database; no cut-off is given here.

Experiments:
MCF7 = assay: Growth inhibition of human MCF7 cells; type: functional, cell-based
HGT = assay: Growth inhibition of HGT cells; type: functional, cell-based; details: Homo sapiens
[1] = Inhibition of soybean 15-lipoxygenase assessed as residual activity by spectrophotometry; set-up: species or system Glycine max

C=C[C@]1(C)C=C2CC[C@@H]3[C@](C)(CCC[C@@]3(C)C(=O)O)[C@H]2CC1 [SANDARACOPIMARIC ACID]
Activity (MCF7): inactive
Activity (HGT): inactive
IC50 [1]: 650 µM
